Results reported in the NIST ThermoML archive (doi:10.1016/j.fluid.2010.10.028).

Assay: xn = mol fraction of the nth substance listed
Conditions: Liquid, Vibrating tube method

CC(C)=O [acetone] + CCCCCCC
Conditions | mass density [kg/m3]
337.69 K, 970 kPa, x1 = 0.801 | 700.39
337.69 K, 4850 kPa, x1 = 0.801 | 706.05
337.69 K, 9830 kPa, x1 = 0.7024 | 699.81
337.69 K, 9840 kPa, x1 = 0.492 | 680.33
337.69 K, 9870 kPa, x1 = 0.801 | 712.82
337.69 K, 14820 kPa, x1 = 0.7024 | 705.98
337.69 K, 14860 kPa, x1 = 0.801 | 719.01
337.69 K, 14870 kPa, x1 = 0.492 | 686.47
337.69 K, 19850 kPa, x1 = 0.801 | 724.74
337.69 K, 19870 kPa, x1 = 0.492 | 692.06
337.69 K, 24790 kPa, x1 = 0.7024 | 717.01
337.69 K, 24840 kPa, x1 = 0.492 | 697.27
337.69 K, 24840 kPa, x1 = 0.801 | 730.15
337.69 K, 29870 kPa, x1 = 0.492 | 702.18
337.69 K, 39870 kPa, x1 = 0.7024 | 731.35
337.69 K, 49840 kPa, x1 = 0.801 | 752.9
337.69 K, 64830 kPa, x1 = 0.801 | 764.19
337.69 K, 84730 kPa, x1 = 0.7024 | 763.81
337.69 K, 89820 kPa, x1 = 0.7024 | 766.84
337.69 K, 94820 kPa, x1 = 0.7024 | 769.76
337.69 K, 99820 kPa, x1 = 0.7024 | 772.57
337.69 K, 104830 kPa, x1 = 0.7024 | 775.31
337.69 K, 109800 kPa, x1 = 0.7024 | 777.96
337.69 K, 114820 kPa, x1 = 0.7024 | 780.54
337.69 K, 119800 kPa, x1 = 0.7024 | 783.06
337.69 K, 124820 kPa, x1 = 0.7024 | 785.53
337.69 K, 129820 kPa, x1 = 0.7024 | 787.95
337.7 K, 930 kPa, x1 = 0.7024 | 687.32
337.7 K, 960 kPa, x1 = 0.492 | 668.07
337.7 K, 4830 kPa, x1 = 0.7024 | 693.05
337.7 K, 4860 kPa, x1 = 0.611 | 683.33
337.7 K, 4870 kPa, x1 = 0.492 | 673.74
337.7 K, 9860 kPa, x1 = 0.611 | 690.06
337.7 K, 14890 kPa, x1 = 0.611 | 696.23
337.7 K, 19800 kPa, x1 = 0.7024 | 711.67
337.7 K, 19850 kPa, x1 = 0.611 | 701.87
337.7 K, 24870 kPa, x1 = 0.611 | 707.18
337.7 K, 29860 kPa, x1 = 0.611 | 712.16
337.7 K, 29890 kPa, x1 = 0.7024 | 722.13
337.7 K, 34850 kPa, x1 = 0.492 | 706.79
337.7 K, 34850 kPa, x1 = 0.611 | 716.83
337.7 K, 34850 kPa, x1 = 0.801 | 739.96
337.7 K, 34880 kPa, x1 = 0.7024 | 726.85
337.7 K, 39850 kPa, x1 = 0.492 | 711.17
337.7 K, 39860 kPa, x1 = 0.611 | 721.28
337.7 K, 39860 kPa, x1 = 0.801 | 744.5
337.7 K, 44850 kPa, x1 = 0.7024 | 735.58
337.7 K, 44850 kPa, x1 = 0.801 | 748.79
337.7 K, 44860 kPa, x1 = 0.611 | 725.53
337.7 K, 49840 kPa, x1 = 0.7024 | 739.64
337.7 K, 49850 kPa, x1 = 0.611 | 729.53
337.7 K, 49860 kPa, x1 = 0.492 | 719.29
337.7 K, 54830 kPa, x1 = 0.611 | 733.35
337.7 K, 54830 kPa, x1 = 0.7024 | 743.51
337.7 K, 54850 kPa, x1 = 0.492 | 723.05
337.7 K, 54850 kPa, x1 = 0.801 | 756.81
337.7 K, 59810 kPa, x1 = 0.7024 | 747.21
337.7 K, 59840 kPa, x1 = 0.801 | 760.56
337.7 K, 59850 kPa, x1 = 0.492 | 726.67
337.7 K, 59940 kPa, x1 = 0.611 | 737.16
337.7 K, 64800 kPa, x1 = 0.7024 | 750.79
337.7 K, 64840 kPa, x1 = 0.492 | 730.12
337.7 K, 64920 kPa, x1 = 0.611 | 740.68
337.7 K, 69780 kPa, x1 = 0.7024 | 754.21
337.7 K, 69840 kPa, x1 = 0.4 | 783.77
337.7 K, 69840 kPa, x1 = 0.8992 | 783.77
337.7 K, 69910 kPa, x1 = 0.611 | 744.03
337.7 K, 69930 kPa, x1 = 0.801 | 767.73
337.7 K, 74900 kPa, x1 = 0.611 | 747.3
337.7 K, 74910 kPa, x1 = 0.801 | 771.08
337.7 K, 79880 kPa, x1 = 0.611 | 750.44
337.7 K, 79880 kPa, x1 = 0.801 | 774.31
337.7 K, 84860 kPa, x1 = 0.611 | 753.48
337.7 K, 84870 kPa, x1 = 0.801 | 777.45
337.7 K, 89840 kPa, x1 = 0.611 | 756.41
337.7 K, 99810 kPa, x1 = 0.801 | 786.3
337.7 K, 109780 kPa, x1 = 0.801 | 791.8
337.7 K, 114850 kPa, x1 = 0.801 | 794.44
337.7 K, 119850 kPa, x1 = 0.611 | 772.4
337.7 K, 119860 kPa, x1 = 0.801 | 797.03
337.71 K, 950 kPa, x1 = 0.611 | 677.6
337.71 K, 1150 kPa, x1 = 0.4 | 716.73
337.71 K, 1150 kPa, x1 = 0.8992 | 716.73
337.71 K, 5000 kPa, x1 = 0.4 | 722.27
337.71 K, 5000 kPa, x1 = 0.8992 | 722.27
337.71 K, 9990 kPa, x1 = 0.4 | 728.91
337.71 K, 9990 kPa, x1 = 0.8992 | 728.91
337.71 K, 14960 kPa, x1 = 0.4 | 735.03
337.71 K, 14960 kPa, x1 = 0.8992 | 735.03
337.71 K, 19960 kPa, x1 = 0.4 | 740.75
337.71 K, 19960 kPa, x1 = 0.8992 | 740.75
